Test results: patent publication US20230151021A1, “Compounds and Compositions for Treating Hematologic Malignancies” (priority 2020, published 2023)
Counter-ions that a name gives are not always drawn.

Experiments:
Pfeiffer = experiment: IC50 assays of biotin-conjugated compounds in multiple PDXs and lymphoma cells; details: Homo sapiens
Method: (§2) 5000 cells as indicated were cultured in 96-well plate with 100 μl of media. On the next day, Brusatol or associated analogs were added once to the cells without media change. After treatment, the cells were incubated with 100 μl buffer for 10 minutes at room temperature following the instructions of CellTiter-Glo kit (Promega, Madison, Wis.). Luminescence was detected using a multi-mode reader Cytation 5 (BioTek, Winooski, Vt.). Brusatol or its analogs are dissolved in 100% ethanol and diluted in 1×PBS for treatment. Two independent experiments done in duplicates were performed.

PDX223 = experiment: as above; details: Homo sapiens
Method: as §2

Jeko-1 = experiment: as above; details: Homo sapiens
Method: as §2

Toledo = experiment: as above; details: Homo sapiens
Method: as §2

PI3Kγ = target: T1, PI3Kγ (Homo sapiens, UniProt P48736); experiment: Biotin pull-down / competitive binding assay in SU-DHL-4 cell lysates; details: SU-DHL-4 lysate, without parent Brusatol
T1 construct: endogenous in cells; host or cells: SU-DHL-4 cells (lysate)
Method: (§1) 30 μg of purified GST-tagged proteins were pre-cleared with Dynabeads M-280 Streptavidin (Invitrogen, Carlsbad, Calif., USA). The supernatants were collected and incubated with Dynabeads M-280 Streptavidin and 0, 300 μM, or 500 μM of biotin-conjugated Brusatol derivatives (51052) overnight at 4° C. For the competitive binding assays, cell lysates from SU-DHL-4 cells were incubated with the biotin-conjugated Brusatol derivative (51048) alone or together with Brusatol as well as Dynabeads M-280 Streptavidin. The complexes were harvested and washed with PBS. The collected beads were mixed with SDS loading buffer for further analysis.

PDX129 = experiment: IC50 assays of biotin-conjugated compounds in multiple PDXs and lymphoma cells; details: Homo sapiens
Method: as §2

[1] = plasma, 1 h
[2] = plasma, 1 h; remark: listed apart in the source
[3] = system: 13 cell lines representing a range of hematologic malignancies; experiment: Cell viability in panel of hematologic malignancy derived cell lines; details: 100 nM, 72 hours
Method: Cell viability was determined after 72 hours by detecting luminescence. ALL, acute lymphoblastic leukemia; BL, Burkitt's lymphoma; DLBCL, diffuse large B-cell lymphoma; MCL, mantle cell lymphoma; AML, acute myeloid leukemia; MM, multiple myeloma; LCLs, lymphoblastoid cell lines.
as §2

Raji cells = experiment: cells; type: cell-based, human; details: 100 nM for 72 h
GST-tagged PI3Kγ = GST-tagged PI3Kγ (Homo sapiens, UniProt P48736); experiment: Pull-down assay with purified GST-tagged protein; type: binding; details: 0, 300 μM, or 500 μM
Method: PIK3CG cDNA (Plasmid #20574) was purchased from Addgene and cloned into a pGEX-6P-1 vector (GE Healthcare, Madison, Wis., USA). This GST-tagged PIK3CG plasmid was transformed into E. coli BL21 (DE3)-competent cells (Life Technologies, Carlsbad, Calif., USA) for in vitro expression according to Molecular Cloning (Third Edition).
as §1

T1 sequence (P48736 whole entry): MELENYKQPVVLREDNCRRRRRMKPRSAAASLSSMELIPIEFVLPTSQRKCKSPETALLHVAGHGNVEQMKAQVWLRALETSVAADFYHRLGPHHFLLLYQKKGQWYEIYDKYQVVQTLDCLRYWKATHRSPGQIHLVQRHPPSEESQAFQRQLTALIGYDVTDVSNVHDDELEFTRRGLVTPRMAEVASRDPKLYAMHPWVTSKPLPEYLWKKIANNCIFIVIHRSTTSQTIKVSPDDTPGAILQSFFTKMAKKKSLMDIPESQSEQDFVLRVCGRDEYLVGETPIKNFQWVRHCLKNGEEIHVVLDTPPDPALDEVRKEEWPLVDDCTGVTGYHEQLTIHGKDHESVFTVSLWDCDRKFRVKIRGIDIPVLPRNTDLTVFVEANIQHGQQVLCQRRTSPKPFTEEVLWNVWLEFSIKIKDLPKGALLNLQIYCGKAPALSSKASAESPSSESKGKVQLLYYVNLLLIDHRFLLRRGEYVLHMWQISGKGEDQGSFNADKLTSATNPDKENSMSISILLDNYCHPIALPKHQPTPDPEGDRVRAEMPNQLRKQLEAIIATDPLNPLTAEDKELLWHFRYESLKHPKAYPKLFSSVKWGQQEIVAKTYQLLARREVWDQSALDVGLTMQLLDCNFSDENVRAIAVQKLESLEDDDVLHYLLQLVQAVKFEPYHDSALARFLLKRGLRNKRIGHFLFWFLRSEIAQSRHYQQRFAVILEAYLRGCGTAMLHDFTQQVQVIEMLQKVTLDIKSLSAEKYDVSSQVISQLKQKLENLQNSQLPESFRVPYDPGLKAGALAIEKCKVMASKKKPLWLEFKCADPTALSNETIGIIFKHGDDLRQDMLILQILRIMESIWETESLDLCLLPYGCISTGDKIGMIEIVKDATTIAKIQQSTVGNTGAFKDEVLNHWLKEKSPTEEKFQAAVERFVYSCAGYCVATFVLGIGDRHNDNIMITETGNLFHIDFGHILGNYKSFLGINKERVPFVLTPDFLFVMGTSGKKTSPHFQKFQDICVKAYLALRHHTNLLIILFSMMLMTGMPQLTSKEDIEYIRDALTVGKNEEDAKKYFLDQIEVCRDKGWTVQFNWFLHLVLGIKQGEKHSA
Sequence of GST-tagged PI3Kγ (P48736 whole entry): as above

Which IC50 (Pfeiffer) does the source give for `COC(=O)[C@@]12OC[C@]34C([C@@H](O)[C@@H]1O)[C@@]1(C)CC(=O)C(OC(=O)CCCC[C@@H]5SC[C@@H]6NC(=O)N[C@@H]65)=C(C)[C@@H]1C[C@H]3OC(=O)[C@H](OC(=O)C=C(C)C)[C@@H]24` (stereo partly drawn) [Compound 51048, methyl (1R,2S,3S,3aS,3a1R,4R,6aR,7aR,11aS)-1,2-dihydroxy-8,11a-dimethyl-4-((3-methylbut-2-enoyl)oxy)-5,10-dioxo-9-((5-((3aS,4S,6aR)-2-oxohexahydro-1H-thieno[3,4-d]imidazol-4-yl)pentanoyl)oxy)-1,4,5,6a,7,7a,10,11,11a,11b-decahydro-2H-3,3a1-(epoxymethano)dibenzo[de,g]chromene-3(3aH)-carboxylate] here?
The IC50 was 3170 nM.

What about the IC50 (PDX223) of the same compound?
The IC50 was 3560 nM.

And the IC50 (Jeko-1)?
Its IC50 is 1190 nM.

What about the IC50 (Toledo) of the same compound?
Its IC50 is over 10000 nM.

What about the “binding activity with PI3Kγ (in words)” value (PI3Kγ) of the same compound?
The value was “relatively strong”.

What about the IC50 (PDX129) of the same compound?
Its IC50 is 1730 nM.

With `COC(=O)[C@@]12OC[C@]34C([C@@H](O)[C@@H]1O)[C@@]1(C)CC(=O)C(OC(=O)C[C@H](C)N)=C(C)[C@@H]1C[C@H]3OC(=O)[C@H](OC(=O)C=C(C)C)[C@@H]24` (stereo partly drawn) [Compound 26-TFA] as the compound, how does the “Plasma stability remaining % at 60 min, rat” value [1] read?
The value was 39%.

What about the “Plasma stability remaining % at 60 min, human” value [2] of the same compound?
Its value is 44%.

With `COC(=O)[C@@]12OC[C@]34C([C@@H](O)[C@@H]1O)[C@@]1(C)CC(=O)C(OC(=O)[C@@H]5CCCN5)=C(C)[C@@H]1C[C@H]3OC(=O)[C@H](OC(=O)C=C(C)C)[C@@H]24` (stereo partly drawn) [Compound 31, (1R,2S,3S,3aS,3a1R,4R,6aR,7aR,11aS)-1,2-dihydroxy-3-(methoxycarbonyl)-8,11a-dimethyl-4-((3-methylbut-2-enoyl)oxy)-5,10-dioxo-1,3,3a,4,5,6a,7,7a,10,11,11a,11b-dodecahydro-2H-3,3a1-(epoxymethano)dibenzo[de,g]chromen-9-yl L-prolinate] as the compound, how does the “inhibition of cell viability (in words)” value [3] read?
Its value is “significantly inhibit cell viability”.

What about the “activity on viability of Raji cells (in words)” value (“activity on viability” for short) (Raji cells) of the same compound?
The value was “potent activities comparable to or higher than the parent brusatol”.

With `COC(=O)[C@@]12OC[C@]34C([C@@H](O)[C@@H]1O)[C@@]1(C)CC(=O)C(OC(=O)C5CCCN5C(=O)OC(C)(C)C)=C(C)[C@@H]1C[C@H]3OC(=O)[C@H](OC(=O)C=C(C)C)[C@@H]24` (stereo partly drawn) [Compound 11, 1-(tert-butyl) 2-((1R,2S,3S,3aS,3a1R,4R,6aR,7aR,11aS)-1,2-dihydroxy-3-(methoxycarbonyl)-8,11a-dimethyl-4-((3-methylbut-2-enoyl)oxy)-5,10-dioxo-1,3,3a,4,5,6a,7,7a,10,11,11a,11b-dodecahydro-2H-3,3a1-(epoxymethano)dibenzo[de,g]chromen-9-yl)(2S)-pyrrolidine-1,2-dicarboxylate] as the compound, how does the “activity on viability” value (Raji cells) read?
The value was “moderate inhibition”.

With `COC(=O)[C@@]12OC[C@]34C([C@@H](O)[C@@H]1O)[C@@]1(C)CC(=O)C(OC(=O)[C@H](C)NC(=O)[C@H](C)N)=C(C)[C@@H]1C[C@H]3OC(=O)[C@H](OC(=O)C=C(C)C)[C@@H]24` (stereo partly drawn) [Compound 22, methyl (1R,2S,3S,3aS,3a1R,4R,6aR,7aR,11aS)-9-((L-alanyl-L-alanyl)oxy)-1,2-dihydroxy-8,11a-dimethyl-4-((3-methylbut-2-enoyl)oxy)-5,10-dioxo-1,4,5,6a,7,7a,10,11,11a,11b-decahydro-2H-3,3a1-(epoxymethano)dibenzo[de,g]chromene-3(3aH)-carboxylate] as the compound, how does the “activity on viability” value (Raji cells) read?
Its value is “not active”.

What does the source list for `COC(=O)[C@@]12OC[C@]34C([C@@H](O)[C@@H]1O)[C@@]1(C)CC(=O)C(OC(=O)CCCCCNC(=O)CCCC[C@@H]5SC[C@@H]6NC(=O)N[C@@H]65)=C(C)[C@@H]1C[C@H]3OC(=O)[C@H](OC(=O)C=C(C)C)[C@@H]24` (stereo partly drawn) [Compound 51052, methyl (1R,2S,3S,3aS,3a1R,4R,6aR,7aR,11aS)-1,2-dihydroxy-8,11a-dimethyl-4-((3-methylbut-2-enoyl)oxy)-5,10-dioxo-9-((6-(5-((3aS,4S,6aR)-2-oxohexahydro-1H-thieno[3,4-d]imidazol-4-yl)pentanamido)hexanoyl)oxy)-1,4,5,6a,7,7a,10,11,11a,11b-decahydro-2H-3,3a1-(epoxymethano)dibenzo[de,g]chromene-3(3aH)-carboxylate]?
association with GST-tagged PI3Kγ in vitro (in words) (GST-tagged PI3Kγ): formed a complex; IC50 (Pfeiffer): 79 nM; IC50 (PDX223): 108 nM; IC50 (Jeko-1): 28 nM; IC50 (Toledo): 388 nM; IC50 (PDX129): 76 nM

Which “activity on viability” value (Raji cells) does the source give for `COC(=O)[C@@]12OC[C@]34C([C@@H](O)[C@@H]1O)[C@@]1(C)CC(=O)C(OC(=O)C[C@H](C)NC(=O)C[C@H](C)N)=C(C)[C@@H]1C[C@H]3OC(=O)[C@H](OC(=O)C=C(C)C)[C@@H]24` (stereo partly drawn) [Compound 21, methyl (1R,2S,3S,3aS,3a1R,4R,6aR,7aR,11aS)-9-(((S)-3-((S)-3-aminobutanamido)butanoyl)oxy)-1,2-dihydroxy-8,11a-dimethyl-4-((3-methylbut-2-enoyl)oxy)-5,10-dioxo-1,4,5,6a,7,7a,10,11,11a,11b-decahydro-2H-3,3a1-(epoxymethano)dibenzo[de,g]chromene-3(3aH)-carboxylate] here?
Its value is “potent activities comparable to or higher than the parent brusatol”.

For `CC(C)=CC(=O)O[C@H]1C(=O)O[C@@H]2C[C@H]3C(C)=C(O)C(=O)C[C@]3(C)C3[C@@H](O)[C@H](O)[C@@]4(C(=O)NCCCCCCNC(=O)CCC[C@@H]5SC[C@@H]6NC(=O)N[C@@H]65)OC[C@]32[C@@H]14` (stereo partly drawn) [Compound 51046, (1R,2S,3S,3aS,3a1R,4R,6aR,7aR,11aS)-1,2,9-trihydroxy-8,11a-dimethyl-5,10-dioxo-3-((6-(4-((3aS,4S,6aR)-2-oxohexahydro-1H-thieno[3,4-d]imidazol-4-yl)butanamido)hexyl)carbamoyl)-1,3,3a,4,5,6a,7,7a,10,11,11a,11b-dodecahydro-2H-3,3a1-(epoxymethano)dibenzo[de,g]chromen-4-yl 3-methylbut-2-enoate], which IC50 (Pfeiffer) is on record?
Its IC50 is 8910 nM.

And the IC50 (PDX223)?
The IC50 was 8970 nM.

And the IC50 (Jeko-1)?
The IC50 was 3010 nM.

What about the IC50 (Toledo) of the same compound?
The IC50 was 494 nM.

What about the IC50 (PDX129) of the same compound?
The IC50 was 1640 nM.

Which “inhibition of cell viability (in words)” value [3] does the source give for `COC(=O)[C@@]12OC[C@]34C([C@@H](O)[C@@H]1O)[C@@]1(C)CC(=O)C(OC(=O)[C@@H](N)Cc5ccccc5)=C(C)[C@@H]1C[C@H]3OC(=O)[C@H](OC(=O)C=C(C)C)[C@@H]24` (stereo partly drawn) [Compound 14, methyl (1R,2S,3S,3aS,3a1R,4R,6aR,7aR,11aS)-9-((L-phenylalanyl)oxy)-1,2-dihydroxy-8,11a-dimethyl-4-((3-methylbut-2-enoyl)oxy)-5,10-dioxo-1,4,5,6a,7,7a,10,11,11a,11b-decahydro-2H-3,3a1-(epoxymethano)dibenzo[de,g]chromene-3(3aH)-carboxylate] here?
Its value is “significantly inhibit cell viability”.

With `COC(=O)[C@@]12OC[C@]34C([C@@H](O)[C@@H]1O)[C@@]1(C)CC(=O)C(OC(=O)CNC(=O)CN)=C(C)[C@@H]1C[C@H]3OC(=O)[C@H](OC(=O)C=C(C)C)[C@@H]24` (stereo partly drawn) [Compound 20, methyl (1R,2S,3S,3aS,3a1R,4R,6aR,7aR,11aS)-9-((glycylglycyl)oxy)-1,2-dihydroxy-8,11a-dimethyl-4-((3-methylbut-2-enoyl)oxy)-5,10-dioxo-1,4,5,6a,7,7a,10,11,11a,11b-decahydro-2H-3,3a1-(epoxymethano)dibenzo[de,g]chromene-3(3aH)-carboxylate] as the compound, how does the “activity on viability” value (Raji cells) read?
The value was “potent activities comparable to or higher than the parent brusatol”.

With `COC(=O)[C@@]12OC[C@]34C([C@@H](O)[C@@H]1O)[C@@]1(C)CC(=O)C(OC(=O)CNC(=O)CNC(=O)CN)=C(C)[C@@H]1C[C@H]3OC(=O)[C@H](OC(=O)C=C(C)C)[C@@H]24` (stereo partly drawn) [Compound 23, methyl (1R,2S,3S,3aS,3a1R,4R,6aR,7aR,11aS)-9-((glycylglycylglycyl)oxy)-1,2-dihydroxy-8,11a-dimethyl-4-((3-methylbut-2-enoyl)oxy)-5,10-dioxo-1,4,5,6a,7,7a,10,11,11a,11b-decahydro-2H-3,3a1-(epoxymethano)dibenzo[de,g]chromene-3(3aH)-carboxylate] as the compound, how does the “activity on viability” value (Raji cells) read?
The value was “potent activities comparable to or higher than the parent brusatol”.
